Laboratory results from patent publication US20120245229A1, “METHOD FOR TREATING NEUROPATHIC PAIN” (priority 2009, published 2012).

Assays:
[1] = test system: complete Freund's adjuvant (CFA)-evoked heat hyperalgesia; test: CFA-evoked heat hyperalgesia (paw withdrawal latency, Hargreaves); format: in vivo, mice; details: intrathecal, post-CFA day 3; DHA and EPA 10 μg
Method: (§1) Animals and pain models. Adult CD1 mice (male, 25-32 g) were used for most experiments. Knockout mice were used lacking TNFR1/II (Tnfrsf1a/1b^−/−) and TRPV1 (Trpv1^−/−) and C57BL/6 wild-type control mice, all from Jackson, for some experiments. All animal procedures performed in this study were approved by the Harvard Medical Area Standing Committee on Animals. 20 μl of diluted formalin (5%), carrageenan (CRG, 1%), or complete Freund's adjuvant (CFA) were injected into the plantar surface of a hindpaw to produce acute, persistent, or chronic inflammatory pain, respectively. Postoperative pain was also produced through hindpaw incision^36 and neuropathic pain by ligation of the spinal nerve^37.
(§2) Reagents and administration. RvE1 and RvD1 were suspended in 1% or 10% ethanol as vehicle for investigating acute (<1 h) and persistent (1-6 h) effects of resolvins on inflammatory pain. The reagents (10 μl) were delivered to the cerebral spinal fluid via intrathecal injection made by a spinal cord puncture between the L5 and L6 level with a 30G needle^38.
(§3) Behavioral analysis. Mice were habituated in the testing environment for two days and performed behavioral testing in a blinded manner. Formalin-evoked spontaneous inflammatory pain was assessed by measuring duration (seconds) animals spent on licking/flinching the affected paws every 5 min for 45 min. Capsaicin-induced spontaneous pain was aslo assessed for 10 min. For testing mechanical sensitivity, mice were put in boxes on an elevated metal mesh floor and stimulated hindpaw with a series of von Frey hairs with logarithmically incrementing stiffness (0.02-2.56 grams, Stoelting), presented perpendicular to the plantar surface. It was determined the 50% paw withdrawal threshold using Dixon's up-down method^40. For testing heat sensitivity, mice were placed in plastic boxes and tested heat sensitivity using Hargreaves radiant heat apparatus (IITC Life Science Inc.). The basal paw withdrawal latency was adjusted to 9-12 seconds and set a cut-off of 20 seconds to prevent tissue damage. The percent maximal possible antinociceptive effect (% M.P.E) was calculated using the equation % M.P.E.=[(PL−BL2)/(BL1−BL2)]×100. BL1, baseline latency before inflammation; BL2, baseline latency after inflammation but before drug injection; PL, latency post drug injection.
(§4) Intrathecal injection. To avoid systemic effects of drugs and target spinal mechanisms, drugs were delivered into cerebral spinal fluid (CSF) space around lumbosacral spinal cord via intrathecal (i.t.) administration. Spinal cord puncture was made with a 30G needle between the L5 and L6 level to deliver the reagents (10 μl) to the cerebral spinal fluid (Hylden and Wilcox, 1980)^5. […] In addition to spinal cord cells, intrathecal drug administration also affects DRG cells^6,7.
The anti-hyperalgesic efficacy of RvE1 prepared in 1% and 10% ethanol was compared on post-CFA day 3.

[2] = test system: carrageenan (CRG)-elicited heat hyperalgesia; test: Carrageenan (CRG)-elicited heat hyperalgesia; format: in vivo, mice
Method: as §1, §3
Resolvins were also used for intraplantar injection. […]

[3] = test system: paw incision-induced postoperative pain; test: Postoperative pain model induced by hindpaw incision; format: in vivo, mice; details: intraplantar 20 ng, 10 min before paw incision
Method: as §1
Behavioral analysis. Mice were habituated in the testing environment for two days and performed behavioral testing in a blinded manner. Formalin-evoked spontaneous inflammatory pain was assessed by measuring duration (seconds) animals spent on licking/flinching the affected paws every 5 min for 45 min. Capsaicin-induced spontaneous pain was aslo assessed for 10 min. […] It was determined the 50% paw withdrawal threshold using Dixon's up-down method^40. […] The percent maximal possible antinociceptive effect (% M.P.E) was calculated using the equation % M.P.E.=[(PL−BL2)/(BL1−BL2)]×100. […]

inflammatory pain = test: Inflammatory pain models induced by formalin or CFA (summary statements); format: in vivo, mouse
Method: as §1, §3

[4] = test system: formalin-induced inflammatory pain; test: Formalin-induced spontaneous inflammatory pain (licking/flinching duration); format: in vivo, mice; details: intrathecal; pertussis toxin 0.2 μg, naloxone 2 μg, ChemR23 siRNA 3 μg daily for 3 days before formalin
Method: as §1, §2, §3, §4
Intrathecal injection: DHA and EPA (Cayman Chemical, 10 μg, prepared in 1% ethanol), COX-2 inhibitor NS-398 (Sigma, 0.1, 1, and 10 μg, prepared in 1% ethanol in FIG. 1a-c or in 10% ethanol in FIG. 2c), morphine (Sigma, 10 to 500 ng, prepared in 1% ethanol in FIG. 1a-c), naloxone (Sigma, 2 μg, prepared in 1% ethanol), pertussis toxin (Tocris Bioscience, 0.2 μg, prepared in saline), chemerin (R & D Systems, 0.45 to 100 ng, prepared in 1% ethanol), TNF-α (R & D Systems, 20 ng, prepared in saline), and capsaicin (Sigma, 0.5 μg in 10 μl, prepared in 1% DMSO) were delivered. To examine whether pretreatment of RvE1 attenuated TNF-α-induced persistent hyperalgesia at 1, 3, and 24 h, RvE1 and TNF-α were mixed and injected at the same time (FIG. 3c). To examine whether pretreatment of RvE1 attenuates capsaicin-induced acute spontaneous pain, RvE1 and capsaicin were mixed and injected at the same time (FIG. 3f).

ChemR23 = ChemR23 western blotting after siRNA knockdown; format: in vivo, mice
Method: siRNAs were mixed with the transfection reagent polyethyleneimine (PEI, Fermentas), 10 min before injection, to increase cell membrane penetration and reduce the degradation (Tan et al., 2005; 2009)^9,10. PEI was dissolved in 5% glucose, and […] of siRNA was mixed with 0.18 μl of PEI, as shown in our previous study (Kawasaki et al., 2008)^7. In the formalin model, siRNA was administrated via intrathecal route (3 μg), delivered at 72 h, 48 h, and 24 h before formalin injection (supplementary FIG. 1a, b). In the carrageenan model, siRNA was administrated via intraplantar route (4 μg), delivered at 48 h, 24 h, and 3 h before carrageenan injection (supplementary FIG. 1c, d). The knockdown effects of ChemR23 siRNA were examined by Western blotting using a ChemR23 antibody (Santa Cruz).
Animals were transcardially perfused with PBS, and the skin, DRG, and spinal cord tissues were rapidly removed and homogenized in a lysis buffer containing a cocktail of protease inhibitors and phosphatase inhibitors. The protein concentrations were determined by BCA Protein Assay (Pierce), and 30 μg of proteins were loaded for each lane and separated on SDS-PAGE gel (4-15%, Bio-Rad). After the transfer, the blots were incubated overnight at 4° C. with polyclonal antibody against ChemR23 (goat, 1:200, Santa Cruz). For loading control, the blots were probed with tubulin antibody (mouse, 1:5000, Sigma).

| Compound | CFA-evoked heat hyperalgesia [1] | CRG-evoked heat hyperalgesia ([2]; intraplantar pretreatment, 20 ng, 10 min before carrageenan) | paw incision-induced mechanical allodynia [3] | pain-like behaviors (inflammatory pain) | reversal of RvE1's antinociceptive action, formalin 2nd phase [4] | reversal of RvE1-induced anti-hyperalgesic effect ([2]; intraplantar ChemR23 siRNA 4 μg at 48 h, 24 h, and 3 h before carrageenan, 4 h after CRG) | ChemR23 expression in the hindpaw skin (ChemR23; intraplantar siRNA 4 μg at 48 h, 24 h, and 3 h before carrageenan) | ChemR23 expression in the DRG (ChemR23; intrathecal siRNA 3 μg, daily for 3 days, before formalin injection) |
| --- | --- | --- | --- | --- | --- | --- | --- | --- |
| CC/C=C\C[C@H](O)/C=C/C=C\C=C\C=C\[C@@H](O)[C@@H](O)C/C=C\CCC(=O)O [RvD1] | Attenuation | substantially attenuated | attenuates the development of paw incision-induced mechanical allodynia | potently inhibit |  |  |  |  |
| ChemR23 siRNA: 5′-AACACUGUGUGGUUUGUCAACtt-3′, synthesized by Dharmacon (guide AACACUGUGUGGUUUGUCAACTT; chemistry not given here) |  |  |  |  | reverses RvE1-induced antinociceptive effect | reverses RvE1-induced anti-hyperalgesic effect | reduces ChemR23 expression in the hindpaw skin | reduces ChemR23 expression in the DRG |
